Test results taken from patent US20090281061A1, “Impaired Alleles of Genes Involved in Metabolic Pathways and Methods for Detecting and Using the Same” (The Regents of the University of California, priority 2008, published 2009).

What was measured:
human MTHFR [1] = molecular target: T1, human MTHFR (Homo sapiens, UniProt P42898); assay: Cell-free MTHFR enzyme activity assay in crude yeast extract, with heat treatment at 55° C.; assay type: biochemical; conditions: 55° C., 20 m
T1 construct: made in house; host or cells: Saccharomyces cerevisiae fol3Δ met13Δ, GAL1 promoter, crude extract

human MTHFR [2] = assay: as above; assay type: biochemical; conditions: crude yeast lysate

major allele: the most common human MTHFR allele in the population, expressed in yeast
activity retained after heat treatment, of original activity (human MTHFR [1]): about 30%

E429A: common human MTHFR variant, regulatory domain
cell-free enzyme activity compared with the major allele (human MTHFR [2]): benign

R594Q: common human MTHFR variant, regulatory domain
cell-free enzyme activity compared with the major allele (human MTHFR [2]): benign
